{"source": "patent US20120009280A1", "about": "“METHOD OF REDUCING THE RATE OF DEGRADATION OF A BIOLOGICAL MATERIAL” (Bio-Energy Ingredients Limited, priority 2009, published 2012)", "format_in_all_cases": "cell-based", "key": {"[1]": {"test_system": "Escherichia coli NCIMB 8545", "experiment": "Antimicrobial efficacy test of saturated aqueous solutions", "settings": "for Corrected count cfu/mL: saturated aqueous solution, inoculum (t = 0) 6.95 × 10^8, replicates A, B; for colonies on plates: saturated solution", "description": "Escherichia coli NCIMB 8545 was subcultured onto TSA and the plates incubated at 30-35° C. for approximately 24 hours. After this time, surface growth was harvested and directly suspended into sterile distilled water and standardised to give 30-45% light transmission at 520 nm on a Jenway 6105 Spectrophotometer—an approximate yield of 2 (10^8) cfu/ml. A 0.1 ml aliquot of this suspension was inoculated into 9.9 ml of CaOH solution. This was performed in duplicate. At the same time, 1 ml of bacterial suspension was removed from the original stock suspension and placed into 9 ml PBS to perform the initial (Time 0) count. The inoculated calcium hydroxide suspensions were then shaken for one hour at room temperature. After this time 1 ml samples of the bacterial suspension were removed from the test containers and placed into 9 ml PBS. For each diluted sample, further serial ten-fold dilutions in PBS down to 10^−5 were made and then used to prepare duplicate 1 ml pour plate counts in TSA. Pour plates were also prepared from the neat (undiluted) sample. The plates were incubated at 30-35° C. for approximately 24 hours. Following incubation, the plates were counted. Optimally, plates with counts of 30-300 colonies were used to calculate the counts at each sampling time.\nEscherichia coli NCIMB 8545 was subcultured onto TSA and the plates incubated at 30-35° C. for approximately 24 hours. After this time, surface growth was harvested and directly suspended into sterile distilled water and standardised to give 30-45% light transmission at 520 nm on a Jenway 6105 Spectrophotometer—an approximate yield of 2×10^8 cfu/ml. […] […]. At the same time, 1 ml of bacterial suspension was removed from the original stock suspension and placed into 9 ml PBS to perform the initial (Time 0) count. The inoculated suspensions were then shaken for one hour at room temperature. After both 10 minutes and one hour, 1 ml samples of the bacterial suspension were removed from the test containers and placed into 9 ml PBS. For each diluted sample, further serial ten-fold dilutions in PBS down to 10^−6 were made and then used to prepare duplicate 1 ml pour plate counts in TSA. Pour plates were also prepared from the neat (undiluted) sample. The plates were incubated at 30-35° C. for approximately 24 hours.\n(§1) Following incubation, the plates were counted. Optimally, plates with counts of 30-300 colonies were used to calculate the counts at each sampling time.\n(§2) Escherichia coli NCIMB 8545 and Salmonella abony NCTC 6017 were subcultured onto Tryptone Soya Agar (TSA) and the plates incubated at 30-35° C. for approximately 24 hours. Clostridium difficile ATCC 43255 was subcultured onto Fastidious Anaerobe Agar (FAA)+5% defibrinated horse blood and the plates incubated at 30-35° C. for approximately 48 hours. After this time, surface growth was harvested and directly suspended into sterile distilled water and standardised to give 30-45% light transmission at 520 nm on a Jenway 6105 Spectrophotometer—an approximate yield of 2×10^8 cfu/ml. […] […]. At the same time, 1 ml of bacterial suspension was removed from the original stock suspensions and placed into 9 ml PBS to perform the initial (Time 0) count. The inoculated suspensions were then shaken for ten minutes at room temperature. After 1 and 10 minutes, 1 ml samples of the bacterial suspensions were removed from the test containers and placed into 9 ml PBS. For each diluted sample, further serial ten-fold dilutions in PBS down to 10^−5 were made and then used to prepare duplicate 1 ml pour plate counts in TSA. Pour plates were also prepared from the neat (undiluted) sample. For Clostridium difficile, 0.1 ml spread plates were prepared on FAA instead of 1 ml pour plates due to the presence of blood in the agar. The plates were incubated at 30-35° C. for approximately 24 hours (48 hours for Clostridium difficile)."}, "[2]": {"test_system": "Clostridium difficile ATCC 43255", "experiment": "Antimicrobial efficacy test of saturated aqueous solutions", "settings": "for Corrected count cfu/mL: saturated aqueous solution, inoculum (t = 0) 8.20 × 10^7, replicates A, B; for reduction: saturated solution 8.35 g/L (0.037 M)", "description": "as §2, §1"}, "Escherichia coli": {"test_system": "Escherichia coli", "experiment": "Spiking test of agar plates with Escherichia coli (kill versus inhibition)", "settings": "for Individual count / Mean count: spiking test", "description": "(§3) When performing total viable counts (TVCs), the agar plates (when they were molten and containing 1 ml of the test sample dilution) were spiked with bacterial organisms (E. Coli and P. aeruginosa) of a known concentration. If the organisms grew, this would indicate that the conditions in the agar plate had not inhibited them. A control with no sample was run at the same time. […]\n(§4) The plates were incubated at 30-35° C. for approximately 24 hours after which time the bacterial colonies were counted.\n. […] This was performed in duplicate."}, "[3]": {"test_system": "Salmonella abony NCTC 6017", "experiment": "Antimicrobial efficacy test of saturated aqueous solutions", "description": "At the same time, 1 ml of bacterial suspension was removed from the original stock suspensions and placed into 9 ml PBS to perform the initial (Time 0) count. The inoculated suspensions were then shaken for ten minutes at room temperature. After 1 and 10 minutes, 1 ml samples of the bacterial suspensions were removed from the test containers and placed into 9 ml PBS. For each diluted sample, further serial ten-fold dilutions in PBS down to 10^−5 were made and then used to prepare duplicate 1 ml pour plate counts in TSA. Pour plates were also prepared from the neat (undiluted) sample. For Clostridium difficile, 0.1 ml spread plates were prepared on FAA instead of 1 ml pour plates due to the presence of blood in the agar. The plates were incubated at 30-35° C. for approximately 24 hours (48 hours for Clostridium difficile).\nas §1"}, "total micro-organism": {"test_system": "total micro-organism", "experiment": "Total microbial (plate) count of spent brewer's / wet distiller's grains stored at ambient temperature", "settings": "dose 10% w/w; distiller's grains not de-watered, Examples 16-18"}, "Pseudomonas aeruginosa": {"test_system": "Pseudomonas aeruginosa", "experiment": "Spiking test of agar plates with Pseudomonas aeruginosa (kill versus inhibition)", "settings": "treated sample with 5% (w/w) calcium oxide, Day 9, all sample dilutions", "description": "as §3, §4"}, "[4]": {"settings": "10 minutes incubation, Example 13"}, "[5]": {"settings": "10 minutes incubation, time 0 count 4.00×10^6 cfu/ml, Example 12"}, "[6]": {"settings": "one hour incubation, time 0 count 4.00×10^6 cfu/ml, Example 12"}, "[7]": {"settings": "E. coli NCIMB 8545, dilution −1 in PBS"}, "[8]": {"settings": "E. coli NCIMB 8545, dilution −2 in PBS"}, "[9]": {"settings": "E. coli NCIMB 8545, dilution −3 in PBS"}, "[10]": {"settings": "E. coli NCIMB 8545, dilution −4 in PBS"}, "[11]": {"settings": "E. coli NCIMB 8545, dilution −5 in PBS"}, "[12]": {"settings": "E. coli NCIMB 8545, saturated solution Neat (control mean 215)"}}, "note": "Where “and” joins values, the source holds several entries; their conditions need not be identical. Identical values can stand only once.", "data": [{"smiles": "[Ca+2].[O-]CC(O)CO.[O-]CC(O)CO", "note": "[calcium diglyceroxide]", "values": [{"measurement": "Corrected count cfu/mL", "setting": "[1]; one minute treatment", "result": "0 cfu/mL and 1 cfu/mL"}, {"measurement": "reduction", "setting": "[1]; saturated solution 8.35 g/L (0.037 M), one minute treatment", "result": "≥ 4", "unit": "log10"}, {"measurement": "colonies on plates", "setting": "[1]; [4]", "result": "No colonies"}, {"measurement": "colonies on plates", "setting": "[1]; [5]", "result": "No colonies"}, {"measurement": "colonies on plates", "setting": "[1]; [6]", "result": "No colonies"}, {"measurement": "Corrected count cfu/mL", "setting": "[2]; one minute treatment", "result": "1.30 × 10^3 cfu/mL and 7.00 × 10^2 cfu/mL"}, {"measurement": "Corrected count cfu/mL", "setting": "[2]; ten minute treatment", "result": "85 cfu/mL and 50 cfu/mL"}, {"measurement": "reduction", "setting": "[2]; one minute treatment", "result": "≥ 4", "unit": "log10"}, {"measurement": "reduction", "setting": "[2]; ten minute treatment", "result": 6, "unit": "log10"}]}, {"smiles": "[Ca+2].[OH-].[OH-]", "note": "[calcium hydroxide]", "values": [{"measurement": "Corrected count cfu/mL", "setting": "[1]; one minute treatment", "result": "1.35 × 10^6 cfu/mL and 1.23 × 10^5 cfu/mL"}, {"measurement": "colonies on plates", "setting": "[1]; [4]", "result": "No colonies"}, {"measurement": "colonies on plates", "setting": "[1]; [5]", "result": "No colonies"}, {"measurement": "colonies on plates", "setting": "[1]; [6]", "result": "No colonies"}, {"measurement": "Corrected count cfu/mL", "setting": "[2]; one minute treatment", "result": "8.50 × 10^2 cfu/mL and 9.50 × 10^2 cfu/mL"}, {"measurement": "Corrected count cfu/mL", "setting": "[2]; ten minute treatment", "result": "1.10 × 10^2 cfu/mL and 1.20 × 10^2 cfu/mL"}, {"measurement": "Individual count", "setting": "Escherichia coli; [7]", "result": "197 and 209"}, {"measurement": "Mean count", "setting": "Escherichia coli; [7]", "result": 203}, {"measurement": "Individual count", "setting": "Escherichia coli; [8]", "result": "194 and 203"}, {"measurement": "Mean count", "setting": "Escherichia coli; [8]", "result": 199}, {"measurement": "Individual count", "setting": "Escherichia coli; [9]", "result": "192 and 240"}, {"measurement": "Mean count", "setting": "Escherichia coli; [9]", "result": 216}, {"measurement": "Individual count", "setting": "Escherichia coli; [10]", "result": "194 and 196"}, {"measurement": "Mean count", "setting": "Escherichia coli; [10]", "result": 195}, {"measurement": "Individual count", "setting": "Escherichia coli; [11]", "result": "235 and 194"}, {"measurement": "Mean count", "setting": "Escherichia coli; [11]", "result": 215}, {"measurement": "Individual count", "setting": "Escherichia coli; [12]", "result": "216 and 191"}, {"measurement": "Mean count", "setting": "Escherichia coli; [12]", "result": 205}, {"measurement": "Corrected count cfu/mL", "setting": "[3]; saturated aqueous solution, one minute treatment, inoculum (t = 0) 7.00 × 10^8, replicates A, B", "result": "59 cfu/mL and 11 cfu/mL"}, {"measurement": "colonies on plates", "setting": "[3]; saturated solution, 10 minutes incubation", "result": "No colonies"}]}, {"smiles": "[O]=[Ca]", "note": "[calcium oxide]", "values": [{"measurement": "inhibitory effect on test organism in spiking test", "setting": "Escherichia coli; treated sample with 5% (w/w) calcium oxide, Day 9, all sample dilutions", "result": "did not demonstrate an inhibitory effect"}, {"measurement": "preservation time with total microbial counts <100 cfu/g", "setting": "total micro-organism", "result": "≧9 weeks"}, {"measurement": "preservation time with total microbial counts <1000 cfu/g", "setting": "total micro-organism", "result": "≧9 weeks"}, {"measurement": "inhibitory effect on test organism in spiking test", "setting": "Pseudomonas aeruginosa", "result": "did not demonstrate an inhibitory effect"}]}]}
